# Assay results published in PubChem BioAssay (NCI).
#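 Assay format: 96-well plates, 48-hour exposure. At the GI50, growth is halved. TGI denotes the concentration required for complete inhibition of growth.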
# What was measured:
# Assay in all cases: NCI anticancer screen, dose series, 48 h
# COLO 205 colon = tested on: COLO 205 colon
# TK-10 renal = tested on: TK-10 renal
# PC-3 prostate = tested on: PC-3 prostate
# KM12 colon = tested on: KM12 colon
# MOLT-4 leukemia = tested on: MOLT-4 leukemia
# SR leukemia = tested on: SR leukemia
# MALME-3M melanoma = tested on: MALME-3M melanoma
# MDA-MB-435 = tested on: MDA-MB-435
# NCI-H226 lung = tested on: NCI-H226 lung
# HL-60(TB) leukemia = tested on: HL-60(TB) leukemia
# SK-MEL-5 melanoma = tested on: SK-MEL-5 melanoma
# SK-OV-3 ovarian = tested on: SK-OV-3 ovarian
# NCI-H460 lung = tested on: NCI-H460 lung
# A498 renal = tested on: A498 renal
# HCT-15 colon = tested on: HCT-15 colon
# DU-145 prostate = tested on: DU-145 prostate
# RXF 393 renal = tested on: RXF 393 renal
# SF-268 CNS = tested on: SF-268 CNS
# U251 CNS = tested on: U251 CNS
# IGROV1 ovarian = tested on: IGROV1 ovarian
# SK-MEL-28 melanoma = tested on: SK-MEL-28 melanoma
# SK-MEL-2 melanoma = tested on: SK-MEL-2 melanoma
# K-562 leukemia = tested on: K-562 leukemia
# HS 578T breast = tested on: HS 578T breast
# HT29 colon = tested on: HT29 colon
# HOP-62 NSCLC = tested on: HOP-62 NSCLC
# 786-0 renal = tested on: 786-0 renal
# LOX IMVI melanoma = tested on: LOX IMVI melanoma
# MDA-MB-231 breast = tested on: MDA-MB-231 breast
# SW-620 colon = tested on: SW-620 colon
# CAKI-1 renal = tested on: CAKI-1 renal
# UACC-62 melanoma = tested on: UACC-62 melanoma
# HCC-2998 colon = tested on: HCC-2998 colon
# NCI-H522 lung = tested on: NCI-H522 lung
# SNB-19 CNS = tested on: SNB-19 CNS
# OVCAR-5 ovarian = tested on: OVCAR-5 ovarian
# CCRF-CEM leukemia = tested on: CCRF-CEM leukemia
# UO-31 renal = tested on: UO-31 renal
# OVCAR-3 ovarian = tested on: OVCAR-3 ovarian
# SN12C renal = tested on: SN12C renal
# HOP-92 NSCLC = tested on: HOP-92 NSCLC
# ACHN renal = tested on: ACHN renal
# RPMI-8226 leukemia = tested on: RPMI-8226 leukemia
# HCT-116 colon = tested on: HCT-116 colon
# UACC-257 melanoma = tested on: UACC-257 melanoma
# EKVX NSCLC = tested on: EKVX NSCLC
# OVCAR-4 ovarian = tested on: OVCAR-4 ovarian
# MCF7 breast = tested on: MCF7 breast
# SNB-75 CNS = tested on: SNB-75 CNS
# NCI/ADR-RES ovarian = tested on: NCI/ADR-RES ovarian
# A549 NSCLC = tested on: A549 NSCLC
# SF-295 CNS = tested on: SF-295 CNS
# T-47D breast = tested on: T-47D breast
# NCI-H23 lung = tested on: NCI-H23 lung
# BT-549 breast = tested on: BT-549 breast
# M14 melanoma = tested on: M14 melanoma
# SF-539 CNS = tested on: SF-539 CNS
# OVCAR-8 ovarian = tested on: OVCAR-8 ovarian
smiles,measurement,setting,value
N#Cc1nc(-c2cccnc2)oc1N,TGI,COLO 205 colon,> 100 µM
same,TGI,TK-10 renal,> 100 µM
same,TGI,PC-3 prostate,> 100 µM
same,TGI,KM12 colon,> 100 µM
same,TGI,MOLT-4 leukemia,> 100 µM
same,TGI,SR leukemia,> 100 µM
same,TGI,MALME-3M melanoma,> 100 µM
same,TGI,MDA-MB-435,> 100 µM
same,TGI,NCI-H226 lung,> 100 µM
same,TGI,HL-60(TB) leukemia,> 100 µM
same,TGI,SK-MEL-5 melanoma,> 100 µM
same,TGI,SK-OV-3 ovarian,> 100 µM
same,TGI,NCI-H460 lung,> 100 µM
same,TGI,A498 renal,> 100 µM
same,TGI,HCT-15 colon,> 100 µM
same,TGI,DU-145 prostate,> 100 µM
same,TGI,RXF 393 renal,> 100 µM
same,TGI,SF-268 CNS,> 100 µM
same,TGI,U251 CNS,> 100 µM
same,TGI,IGROV1 ovarian,> 100 µM
same,TGI,SK-MEL-28 melanoma,> 100 µM
same,TGI,SK-MEL-2 melanoma,> 100 µM
same,TGI,K-562 leukemia,> 100 µM
same,TGI,HS 578T breast,> 100 µM
same,TGI,HT29 colon,> 100 µM
same,TGI,HOP-62 NSCLC,> 100 µM
same,TGI,786-0 renal,> 100 µM
same,TGI,LOX IMVI melanoma,> 100 µM
same,TGI,MDA-MB-231 breast,> 100 µM
same,TGI,SW-620 colon,> 100 µM
same,TGI,CAKI-1 renal,> 100 µM
same,TGI,UACC-62 melanoma,> 100 µM
same,TGI,HCC-2998 colon,> 100 µM
same,TGI,NCI-H522 lung,> 100 µM
same,TGI,SNB-19 CNS,> 100 µM
same,TGI,OVCAR-5 ovarian,> 100 µM
same,TGI,CCRF-CEM leukemia,> 100 µM
same,TGI,UO-31 renal,> 100 µM
same,TGI,OVCAR-3 ovarian,> 100 µM
same,TGI,SN12C renal,> 100 µM
same,TGI,HOP-92 NSCLC,> 100 µM
same,TGI,ACHN renal,> 100 µM
same,TGI,RPMI-8226 leukemia,> 100 µM
same,TGI,HCT-116 colon,> 100 µM
same,TGI,UACC-257 melanoma,> 100 µM
same,TGI,EKVX NSCLC,> 100 µM
same,TGI,OVCAR-4 ovarian,> 100 µM
O=[N+]([O-])c1cc([N+](=O)[O-])c(N2CCCC2)cc1NN=C(c1ccc(O)cc1)c1ccc(O)cc1,GI50,COLO 205 colon,3.79 µM
same,TGI,COLO 205 colon,15.5 µM
same,GI50,TK-10 renal,11.6 µM
same,TGI,TK-10 renal,35.8 µM
same,GI50,PC-3 prostate,6.07 µM
same,TGI,PC-3 prostate,> 100 µM
same,GI50,MCF7 breast,3.55 µM
same,TGI,MCF7 breast,20.1 µM
same,GI50,KM12 colon,3.51 µM
same,TGI,KM12 colon,14.1 µM
same,GI50,MOLT-4 leukemia,3.36 µM
same,TGI,MOLT-4 leukemia,> 100 µM
same,GI50,SNB-75 CNS,1340 nM
same,TGI,SNB-75 CNS,6.4 µM
same,GI50,SR leukemia,5.98 µM
same,TGI,SR leukemia,30.9 µM
same,GI50,MALME-3M melanoma,14.9 µM
same,TGI,MALME-3M melanoma,35 µM
same,GI50,MDA-MB-435,2520 nM
same,TGI,MDA-MB-435,14.4 µM
same,GI50,NCI/ADR-RES ovarian,13.6 µM
same,TGI,NCI/ADR-RES ovarian,37.9 µM
same,GI50,NCI-H226 lung,16.9 µM
same,TGI,NCI-H226 lung,45.8 µM
same,GI50,HL-60(TB) leukemia,7.89 µM
same,TGI,HL-60(TB) leukemia,37.5 µM
same,GI50,SK-MEL-5 melanoma,2730 nM
same,TGI,SK-MEL-5 melanoma,15.3 µM
same,GI50,SK-OV-3 ovarian,7.44 µM
same,TGI,SK-OV-3 ovarian,19.8 µM
same,GI50,NCI-H460 lung,4.21 µM
same,TGI,NCI-H460 lung,15.9 µM
same,GI50,A498 renal,5.34 µM
same,TGI,A498 renal,16.7 µM
same,GI50,HCT-15 colon,3.98 µM
same,TGI,HCT-15 colon,15.9 µM
same,GI50,DU-145 prostate,7.43 µM
same,TGI,DU-145 prostate,20.2 µM
same,GI50,A549 NSCLC,3.82 µM
same,TGI,A549 NSCLC,16.4 µM
same,GI50,RXF 393 renal,3.12 µM
same,TGI,RXF 393 renal,12.8 µM
same,GI50,SF-268 CNS,2990 nM
same,TGI,SF-268 CNS,12.6 µM
same,GI50,U251 CNS,4.81 µM
same,TGI,U251 CNS,18.3 µM
same,GI50,IGROV1 ovarian,3.96 µM
same,TGI,IGROV1 ovarian,16.9 µM
same,GI50,SK-MEL-28 melanoma,3.39 µM
same,TGI,SK-MEL-28 melanoma,13.8 µM
same,GI50,SK-MEL-2 melanoma,7.04 µM
same,TGI,SK-MEL-2 melanoma,24.3 µM
same,GI50,K-562 leukemia,2350 nM
same,TGI,K-562 leukemia,21 µM
same,GI50,HT29 colon,3.41 µM
same,TGI,HT29 colon,14.5 µM
same,GI50,HOP-62 NSCLC,10.3 µM
same,TGI,HOP-62 NSCLC,24.5 µM
same,GI50,786-0 renal,6.88 µM
same,TGI,786-0 renal,19.8 µM
same,GI50,LOX IMVI melanoma,3.28 µM
same,TGI,LOX IMVI melanoma,14.6 µM
same,GI50,MDA-MB-231 breast,4.01 µM
same,TGI,MDA-MB-231 breast,16 µM
same,GI50,SF-295 CNS,1480 nM
same,TGI,SF-295 CNS,5.36 µM
same,GI50,SW-620 colon,9.15 µM
same,TGI,SW-620 colon,21.2 µM
same,GI50,CAKI-1 renal,6.23 µM
same,TGI,CAKI-1 renal,21.1 µM
same,GI50,UACC-62 melanoma,5.82 µM
same,TGI,UACC-62 melanoma,19 µM
same,GI50,HCC-2998 colon,4.12 µM
same,TGI,HCC-2998 colon,14.5 µM
same,GI50,T-47D breast,681 nM
same,TGI,T-47D breast,4.76 µM
same,GI50,NCI-H522 lung,12.8 µM
same,TGI,NCI-H522 lung,45.6 µM
same,GI50,SNB-19 CNS,7.06 µM
same,TGI,SNB-19 CNS,21.6 µM
same,GI50,NCI-H23 lung,9.46 µM
same,TGI,NCI-H23 lung,23.3 µM
same,GI50,OVCAR-5 ovarian,17.2 µM
same,TGI,OVCAR-5 ovarian,30.9 µM
same,GI50,CCRF-CEM leukemia,2170 nM
same,TGI,CCRF-CEM leukemia,21.5 µM
same,GI50,UO-31 renal,5.54 µM
same,TGI,UO-31 renal,18.5 µM
same,GI50,OVCAR-3 ovarian,2410 nM
same,TGI,OVCAR-3 ovarian,7.65 µM
same,GI50,BT-549 breast,18.5 µM
same,TGI,BT-549 breast,75.3 µM
same,GI50,SN12C renal,10.1 µM
same,TGI,SN12C renal,23.3 µM
same,GI50,M14 melanoma,9.62 µM
same,TGI,M14 melanoma,22.1 µM
same,GI50,HOP-92 NSCLC,10.1 µM
same,TGI,HOP-92 NSCLC,26.4 µM
same,GI50,SF-539 CNS,12.4 µM
same,TGI,SF-539 CNS,24.8 µM
same,GI50,ACHN renal,2310 nM
same,TGI,ACHN renal,11.7 µM
same,GI50,RPMI-8226 leukemia,3.78 µM
same,TGI,RPMI-8226 leukemia,24 µM
same,GI50,OVCAR-8 ovarian,9.86 µM
same,TGI,OVCAR-8 ovarian,60.5 µM
same,GI50,HCT-116 colon,4.54 µM
same,TGI,HCT-116 colon,16.5 µM
same,GI50,UACC-257 melanoma,13.6 µM
same,TGI,UACC-257 melanoma,26.9 µM
same,GI50,EKVX NSCLC,508 nM
same,TGI,EKVX NSCLC,23.9 µM
same,GI50,OVCAR-4 ovarian,4.03 µM
same,TGI,OVCAR-4 ovarian,40 µM
